Reference: PMC6582257, “Inhibition of Escherichia coli and Bacillus subtilis FtsZ Polymerization and Bacillus subtilis Growth by Dihydroxynaphtyl Aryl Ketones” (Frontiers in Microbiology, 2019)
Several values for one entry are separate records, joined by “and”; a condition that tells them apart may be missing. Equal values may be shown once. Read-outs that look alike come from different tables or passages of the source.

Legend:
EcFtsZ [1] = target: T1, EcFtsZ (Escherichia coli, UniProt P0A9A6); experiment: GTP induced EcFtsZ polymerization by light scattering (PK/PEP GTP regeneration system); type: biochemical
T1 construct: made in house; host or cells: E. coli BL21 (DE3)
Experimental: (§1) Polymerization of FtsZ was determined by light scattering. Light scattering was measured on a Perkin Elmer LS 50 spectrofluorimeter, illuminating with light at a wavelength of 350 nm (excitation) and recording at the same wavelength (emission). Excitation and emission bandwidth were 7 nm and a 4% transmittance filter was used in the emission path. Temperature was kept constant at 30°C.
(§2) Polymerization of FtsZ induced by GTP [with GTP regeneration system PK/PEP (Margalit et al., [2004])] was measured in the absence and the presence of dNAK 4. 12.5 μM FtsZ was pre-incubated in 50 mM HEPES pH 7.3, 50 mM KCl, 10 mM MgCl2, 1% DMSO, and 1 mM PEP. The reaction was started by adding the compound (at the concentration indicated in the figures), 4 units of PK and 1 mM GTP. For each polymerization reaction, a baseline was registered, which corresponds to the light scattering after adding the compound and prior to the induction of polymerization by the addition of GTP and PK.

[2] = test system: Staphylococcus aureus BEM42; experiment: Growth inhibition halos on bacterial lawns; type: cell-based; set-up: key: −: Absence (-) or presence (+) of growth inhibition halos on different bacterial lawns; Absence (-) or presence (+) of growth inhibition halos on different bacterial lawns; details: 5 µl, 37°C 5-6 h
Experimental: (§3) TABLE SM1. Effect of dNAK 4 tested directly on the growth of different bacterial […]
(§4) Strains Amount of dNAK 4 in DMSO 30% […]
(§5) Absence (-) or presence (+) of growth inhibition halos on different bacterial lawns.
(§6) The bacterial lawns for each strain listed in this Table were prepared as follow:
(§7) Bacterial cells were grown in Müller-Hinton (MH) media until an OD600 = 0.3. 300 µl of each culture was mixed with 5 ml of MH soft agar and poured into a plate containing 20 ml of MH hard agar. Once cooled, 5 µl of dNAK 4 dissolved in DMSO […]
(§8) the top agar and incubated at 37°C during 5-6 h until growth inhibition halos were […]
(§9) growth inhibition halos in any of the strains tested. As positive control the antibiotic minocycline was used. The experiments were performed by triplicate. The bacterial strains used in these experiments belong to our laboratory collection.

B. subtilis [3] = experiment: Live-cell imaging of cell division in CellASIC ONIX2 microfluidic chambers; type: cell-based, Bacillus subtilis; details: LB with 32 μM perfused 8 h, 37°C
BsFtsZ [4] = target: T2, BsFtsZ (Bacillus subtilis, UniProt P17865); experiment: GTP induced BsFtsZ polymerization by light scattering (PK/PEP GTP regeneration system); type: biochemical
T2 construct: made in house; host or cells: E. coli DH10B
Experimental: as §1, §2

tubulin = target: tubulin; set-up: method as in Gutiérrez et al., 2015; details: ref Gutiérrez et al., 2015; cited from earlier work
E. coli K12 = experiment: Growth curves in liquid Müller-Hinton culture, E. coli; type: cell-based, Escherichia coli; details: up to 32 μM, 37°C
Experimental: (§10) Cells were grown in liquid culture medium Müller Hinton (MH) in the presence and absence of the compound. MH medium was inoculated with an overnight culture of each strain and grown until an OD600 of 0.6 was reached. Both cultures were then diluted to OD600 of 0.1 and subsequently divided into several cultures, where the controls (without the compound and with DMSO) and different concentrations of dNAK 4 were tested. Each experimental condition was assayed in 250 μL, six times, in a 96-well ELISA plate. The cultures were grown under agitation at 37°C in a plate spectrofluorimeter with absorbance module model TECAN Infinite M200 PRO and the OD600 was automatically registered every 15 min for 24 h.

B. subtilis [5] = experiment: Growth curves in liquid Müller-Hinton culture, B. subtilis; type: cell-based, Bacillus subtilis; details: for effective concentration (total growth arrest): liquid culture
Experimental: as §10

BsFtsZ [6] = target: T2, BsFtsZ; experiment: GDP induced BsFtsZ polymerization by light scattering; type: biochemical; details: 32 μM compound, 2 mM GDP, 12.5 μM protein
Experimental: as §1
(§11) Polymerization of FtsZ induced by GDP was measured in the absence and the presence of dNAK 4. 12.5 μM FtsZ was pre-incubated in 50 mM HEPES pH 7.3, 50 mM KCl, 10 mM MgCl2, 1% DMSO, and 2 mM GDP. The reaction was started by adding the compound at 32 μM final concentration.

E. coli = experiment: Live-cell imaging of cell division in CellASIC ONIX2 microfluidic chambers; type: cell-based, Escherichia coli; details: LB with 32 μM perfused 8 h, 37°C
Experimental: In order to evaluate the effect of dNAK 4 at a cellular level, we designed a live-cell imaging approach using the microfluidics platform CellASIC ONIX2 (Merck) coupled to a Lionheart FX automated microscope (BioTek). This setup allowed us to directly monitor the division of E. coli and B. subtilis cells inside microchambers, under a precisely controlled temperature (37°C) and the continuous perfusion of fresh culture medium. The microscope was set up to take one picture of each chamber every 10 min during the whole experiment (20 h), in order to get a continuous view of the division process occurring in a group of cells and its response to the perfusion of dNAK 4. First, cells of each strain were inoculated into separate microchambers, perfusing LB medium for 4 h while monitoring cell growth. Afterwards, LB supplemented with 32 μM dNAK 4 was perfused during the next 8 h. Finally, LB medium without dNAK 4 was perfused during the last 8 h in order to monitor the effect of washing the compound. […] After washing the compound, some B. subtilis cells seemed to partially recover the ability to divide.
2. Live-cell imaging of E. coli and B. subtilis cell division while grown in microfluidic chambers, in the presence or absence of dNAK 4. […]

Bacillus subtilis BEM54 = experiment: Growth inhibition halos on bacterial lawns; type: cell-based; set-up: key to growth inhibition halo: −: Absence (-) or presence (+) of growth inhibition halos on different bacterial lawns; Absence (-) or presence (+) of growth inhibition halos on different bacterial lawns; details: for growth inhibition halo: 5 µl, 37°C 5-6 h
Experimental: as §3, §4, §5, §6, §7, §8, §9

[7] = test system: Enterobacter aerogenes BEM27; experiment: Growth inhibition halos on bacterial lawns; type: cell-based; set-up: key to growth inhibition halo: −: Absence (-) or presence (+) of growth inhibition halos on different bacterial lawns; Absence (-) or presence (+) of growth inhibition halos on different bacterial lawns; details: for growth inhibition halo: 5 µl, 37°C 5-6 h
Experimental: as §3, §4, §5, §6, §7, §8, §9

Proteus mirabilis BEM87 = experiment: Growth inhibition halos on bacterial lawns; type: cell-based; set-up: key to growth inhibition halo: −: Absence (-) or presence (+) of growth inhibition halos on different bacterial lawns; Absence (-) or presence (+) of growth inhibition halos on different bacterial lawns; details: for growth inhibition halo: 5 µl, 37°C 5-6 h
Experimental: as §3, §4, §5, §6, §7, §8, §9

Escherichia coli K12 = experiment: Growth inhibition halos on bacterial lawns; type: cell-based; set-up: key to growth inhibition halo: −: Absence (-) or presence (+) of growth inhibition halos on different bacterial lawns; Absence (-) or presence (+) of growth inhibition halos on different bacterial lawns; details: for growth inhibition halo: 5 µl, 37°C 5-6 h
Experimental: as §3, §4, §5, §6, §7, §8, §9

[8] = test system: Pseudomonas aeruginosa BEM12; experiment: Growth inhibition halos on bacterial lawns; type: cell-based; set-up: key to growth inhibition halo: −: Absence (-) or presence (+) of growth inhibition halos on different bacterial lawns; Absence (-) or presence (+) of growth inhibition halos on different bacterial lawns; details: for growth inhibition halo: 5 µl, 37°C 5-6 h
Experimental: as §3, §4, §5, §6, §7, §8, §9

normal and cancer cell = test system: normal and cancer cell; set-up: method as in Benites et al., 2016; details: ref Benites et al., 2016; cited from earlier work
EcFtsZ [9] = target: T1, EcFtsZ; experiment: GDP induced EcFtsZ polymerization by light scattering; type: biochemical; details: 32 μM compound, 2 mM GDP, 12.5 μM protein
Experimental: as §1, §11

[10] = calculated from the EcFtsZ polymerization inhibition by the compounds, read-out: IFP (inhibition of EcFtsZ polymerization) expressed as IC50
[11] = at the concentration tested (0.05-2 µg)

T2 sequence (P17865 whole entry): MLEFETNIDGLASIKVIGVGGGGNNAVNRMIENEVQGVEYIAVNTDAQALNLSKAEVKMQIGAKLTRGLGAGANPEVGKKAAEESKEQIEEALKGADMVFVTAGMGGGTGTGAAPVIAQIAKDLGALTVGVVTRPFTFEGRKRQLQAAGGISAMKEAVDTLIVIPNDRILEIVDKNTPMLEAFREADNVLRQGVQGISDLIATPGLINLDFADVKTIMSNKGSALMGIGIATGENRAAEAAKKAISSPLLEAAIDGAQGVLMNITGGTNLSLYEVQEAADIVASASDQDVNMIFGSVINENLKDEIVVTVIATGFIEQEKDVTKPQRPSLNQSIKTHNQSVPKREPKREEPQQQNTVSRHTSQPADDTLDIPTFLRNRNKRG
T1 sequence (P0A9A6 whole entry): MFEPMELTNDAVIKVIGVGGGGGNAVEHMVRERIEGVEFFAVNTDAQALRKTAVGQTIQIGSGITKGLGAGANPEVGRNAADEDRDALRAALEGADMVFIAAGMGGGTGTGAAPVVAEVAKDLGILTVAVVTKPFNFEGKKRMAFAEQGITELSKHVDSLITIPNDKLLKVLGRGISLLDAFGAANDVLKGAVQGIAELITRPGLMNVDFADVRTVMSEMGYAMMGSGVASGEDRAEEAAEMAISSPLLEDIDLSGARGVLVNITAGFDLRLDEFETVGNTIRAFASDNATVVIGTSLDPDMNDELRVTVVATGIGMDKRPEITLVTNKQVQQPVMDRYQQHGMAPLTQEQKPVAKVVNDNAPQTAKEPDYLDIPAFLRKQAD

## O=C(c1cccs1)c1cc(O)c2ccccc2c1O [dNAK 1]
EcFtsZ [1]; [10]
  IC50: 100 µM

## O=C(c1ccsc1)c1cc(O)c2ccccc2c1O [dNAK 2]
EcFtsZ [1]; [10]
  IC50: 44 µM

## O=C(c1ccco1)c1cc(O)c2ccccc2c1O [dNAK 3]
EcFtsZ [1]; [10]
  IC50: 39 µM

## O=C(c1ccc[nH]1)c1cc(O)c2ccccc2c1O [dNAK 4, (1,4-dihydroxy-naphthalen-2-yl)-(1H-pyrrol-2-yl)-methanone]
[2]; 0.05 µg in DMSO 30%
  growth inhibition halo: −
[2]; 0.1 µg in DMSO 30%
  growth inhibition halo: +
[2]; 0.3 µg in DMSO 30%
  growth inhibition halo: +
[2]; 0.5 µg in DMSO 30%
  growth inhibition halo: +
[2]; 1 µg in DMSO 30%
  growth inhibition halo: +
[2]; 2 µg in DMSO 30%
  growth inhibition halo: +
B. subtilis [3]
  effect on growth of B. subtilis cells: complete growth arrest
BsFtsZ [4]
  IC50: 9.13 ± 0.66 µM
tubulin
  Kd: 1.02 ± 0.23 µM
E. coli K12
  effect on E. coli K12 growth in liquid culture: no inhibitory effect
B. subtilis [5]; 32 μM, during 16 h, Müller-Hinton, 37°C
  B. subtilis growth in liquid culture: no growth
B. subtilis [5]
  effective concentration (total growth arrest): 32 µM
B. subtilis [5]; conversion of 32 μM
  effective concentration (total growth arrest): 8 µg/mL
BsFtsZ [6]
  polymerization of BsFtsZ with GDP: induced
E. coli
  effect on growth of E. coli cells: no effect
Bacillus subtilis BEM54; 0.05 µg in DMSO 30%
  growth inhibition halo: −
Bacillus subtilis BEM54; 0.1 µg in DMSO 30%
  growth inhibition halo: +
Bacillus subtilis BEM54; 0.3 µg in DMSO 30%
  growth inhibition halo: +
Bacillus subtilis BEM54; 0.5 µg in DMSO 30%
  growth inhibition halo: +
Bacillus subtilis BEM54; 1 µg in DMSO 30%
  growth inhibition halo: +
Bacillus subtilis BEM54; 2 µg in DMSO 30%
  growth inhibition halo: +
Bacillus subtilis BEM54; bacterial lawn, B. subtilis
  lowest amount giving growth inhibition in plate assays: 0.1 µg
[7]; 0.05 µg in DMSO 30%
  growth inhibition halo: −
[7]; 0.1 µg in DMSO 30%
  growth inhibition halo: −
[7]; 0.3 µg in DMSO 30%
  growth inhibition halo: −
[7]; 0.5 µg in DMSO 30%
  growth inhibition halo: −
[7]; 1 µg in DMSO 30%
  growth inhibition halo: −
[7]; 2 µg in DMSO 30%
  growth inhibition halo: −
[7]; [11]
  inhibitory effect in plate assays: no inhibitory effect
Proteus mirabilis BEM87; 0.05 µg in DMSO 30%
  growth inhibition halo: −
Proteus mirabilis BEM87; 0.1 µg in DMSO 30%
  growth inhibition halo: −
Proteus mirabilis BEM87; 0.3 µg in DMSO 30%
  growth inhibition halo: −
Proteus mirabilis BEM87; 0.5 µg in DMSO 30%
  growth inhibition halo: +
Proteus mirabilis BEM87; 1 µg in DMSO 30%
  growth inhibition halo: +
Proteus mirabilis BEM87; 2 µg in DMSO 30%
  growth inhibition halo: +
Proteus mirabilis BEM87; bacterial lawn, P. mirabilis
  amount giving growth inhibition in plate assays: 0.3 to 0.5 µg
Escherichia coli K12; 0.05 µg in DMSO 30%
  growth inhibition halo: −
Escherichia coli K12; 0.1 µg in DMSO 30%
  growth inhibition halo: −
Escherichia coli K12; 0.3 µg in DMSO 30%
  growth inhibition halo: −
Escherichia coli K12; 0.5 µg in DMSO 30%
  growth inhibition halo: −
Escherichia coli K12; 1 µg in DMSO 30%
  growth inhibition halo: −
Escherichia coli K12; 2 µg in DMSO 30%
  growth inhibition halo: −
Escherichia coli K12; [11]
  inhibitory effect in plate assays: no inhibitory effect
[8]; 0.05 µg in DMSO 30%
  growth inhibition halo: −
[8]; 0.1 µg in DMSO 30%
  growth inhibition halo: −
[8]; 0.3 µg in DMSO 30%
  growth inhibition halo: +
[8]; 0.5 µg in DMSO 30%
  growth inhibition halo: +
[8]; 1 µg in DMSO 30%
  growth inhibition halo: +
[8]; 2 µg in DMSO 30%
  growth inhibition halo: +
[8]; bacterial lawn, P. aeruginosa
  amount giving growth inhibition in plate assays: 0.3 to 0.5 µg
Normal and cancer cell
  effect on normal and cancer cell proliferation: no effect
EcFtsZ [9]
  polymerization of EcFtsZ with GDP: induced
EcFtsZ [1]; from slope of light scattering increment after depolymerization vs concentration, PK/PEP GTP regeneration system, read-out: IFP expressed as IC50 (converted)
  IC50: 2.3 ± 0.1 µM
EcFtsZ [1]; from steady-state slope of light scattering increment vs concentration, PK/PEP GTP regeneration system, read-out: IFP expressed as IC50 (converted)
  IC50: 4.6 µM and 4.4 µM

## COc1cc(C(=O)c2cc(O)c3ccccc3c2O)cc(OC)c1OC [dNAK 5]
EcFtsZ [1]; [10]
  IC50: 81.5 µM

## O=C(c1ccc[nH]1)c1cc(O)ccc1O [dPAK 4, (2,5-dihydroxy-phenyl)-(1H-pyrrol-2-yl)-methanone]
BsFtsZ [4]; 2-64 µM, 1% DMSO
  inhibitory effect over BsFtsZ polymerization: no inhibitory effect
EcFtsZ [1]; 2-64 µM, 1% DMSO
  inhibitory effect over EcFtsZ polymerization: no inhibitory effect
